Test in all cases: Cysteine liganding, probe competition
Type in all cases: binding

One experiment concerns the target T1, UniProt Q9BYV6 (Homo sapiens, UniProt Q9BYV6).
T1 construct: 200 μL of lysate containing 5 mg/ml proteome was treated with 2 μL of 100× compound stock; endogenous in cells
Conditions: read-out: KB02_500 uM_percent_inhibition. The source says:
(§1) The following 96-well sample prep protocol was used for sample preparation.

The target of another experiment is T2, UniProt Q15366 (Homo sapiens, UniProt Q15366).
T2 construct: Cells were resuspended in cold PBS on ice and sonicated with a probe sonicator to achieve lysis; endogenous in cells
The settings on record: read-out: KB02_500 uM_percent_inhibition.
Description: as §1

A further experiment has as its target T3, UniProt P0DH78 (Homo sapiens, UniProt P0DH78).
T3 construct: 200 μL of lysate containing 5 mg/ml proteome was treated with 2 μL of 100× compound stock; endogenous in cells
The settings on record: read-out: percent_inhibition.
Description: as §1

For another experiment, the target named is T4, UniProt Q9NRJ4 (Homo sapiens, UniProt Q9NRJ4).
T4 construct: 200 μL of lysate containing 5 mg/ml proteome was treated with 2 μL of 100× compound stock; endogenous in cells
The settings on record: read-out: KB02_100 uM_percent_inhibition.
Description: as §1

Another experiment addresses T5, UniProt O15344 (Homo sapiens, UniProt O15344).
T5 construct: Cells were resuspended in cold PBS on ice and sonicated with a probe sonicator to achieve lysis; endogenous in cells
Conditions: 500 uM.
Description: as §1

The next experiment has as its target T6, UniProt Q96PU5 (Homo sapiens, UniProt Q96PU5).
T6 construct: Cells were resuspended in cold PBS on ice and sonicated with a probe sonicator to achieve lysis; endogenous in cells
Description: as §1

The next experiment has as its target T7, UniProt E7ERA6 (Homo sapiens, UniProt E7ERA6).
T7 construct: 200 μL of lysate containing 5 mg/ml proteome was treated with 2 μL of 100× compound stock; endogenous in cells
Description: as §1

The target of the next experiment is T8, UniProt Q9C040 (Homo sapiens, UniProt Q9C040).
T8 construct: 200 μL of lysate containing 5 mg/ml proteome was treated with 2 μL of 100× compound stock; endogenous in cells
Description: as §1

A further experiment concerns the target T9, UniProt Q9H000 (Homo sapiens, UniProt Q9H000).
T9 construct: Cells were resuspended in cold PBS on ice and sonicated with a probe sonicator to achieve lysis; endogenous in cells
Conditions: 100 uM.
Description: as §1

Another experiment addresses T10, UniProt Q13114 (Homo sapiens, UniProt Q13114).
T10 construct: 200 μL of lysate containing 5 mg/ml proteome was treated with 2 μL of 100× compound stock; endogenous in cells
Conditions: read-out: percent_inhibition.
Description: as §1

For another experiment, the target named is T11, UniProt Q9NQ86 (Homo sapiens, UniProt Q9NQ86).
T11 construct: 200 μL of lysate containing 5 mg/ml proteome was treated with 2 μL of 100× compound stock; endogenous in cells
T11 sequence (Q9NQ86 whole entry, change not shown): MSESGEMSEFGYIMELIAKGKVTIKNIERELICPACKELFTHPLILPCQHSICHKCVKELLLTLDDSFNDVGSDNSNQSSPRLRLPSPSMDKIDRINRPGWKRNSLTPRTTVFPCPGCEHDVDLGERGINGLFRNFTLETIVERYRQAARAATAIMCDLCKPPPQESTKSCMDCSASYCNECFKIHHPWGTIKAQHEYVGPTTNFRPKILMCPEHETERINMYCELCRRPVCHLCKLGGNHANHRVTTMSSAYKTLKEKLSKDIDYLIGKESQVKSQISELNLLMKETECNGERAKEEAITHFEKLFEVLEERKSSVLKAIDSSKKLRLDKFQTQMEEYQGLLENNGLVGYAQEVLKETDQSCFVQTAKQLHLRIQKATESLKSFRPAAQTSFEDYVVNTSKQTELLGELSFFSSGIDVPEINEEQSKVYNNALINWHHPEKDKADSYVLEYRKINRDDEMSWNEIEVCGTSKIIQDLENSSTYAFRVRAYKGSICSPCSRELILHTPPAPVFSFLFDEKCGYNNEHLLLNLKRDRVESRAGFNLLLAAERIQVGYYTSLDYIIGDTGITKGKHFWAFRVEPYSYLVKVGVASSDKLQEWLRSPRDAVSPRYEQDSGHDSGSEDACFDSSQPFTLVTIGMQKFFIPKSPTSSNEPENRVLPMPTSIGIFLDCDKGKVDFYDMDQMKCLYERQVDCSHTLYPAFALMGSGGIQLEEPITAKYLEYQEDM
Description: as §1

The next experiment has as its target T12, UniProt Q96EP0 (Homo sapiens, UniProt Q96EP0).
T12 construct: 200 μL of lysate containing 5 mg/ml proteome was treated with 2 μL of 100× compound stock; endogenous in cells
Conditions: 500 uM.
Description: as §1

The target in a further experiment is T13, UniProt P51948 (Homo sapiens, UniProt P51948).
T13 construct: Cells were resuspended in cold PBS on ice and sonicated with a probe sonicator to achieve lysis; endogenous in cells
The settings on record: read-out: percent inhibition.
Description: as §1

Another experiment concerns the target T14, UniProt Q5U5Q3 (Homo sapiens, UniProt Q5U5Q3).
T14 construct: Cells were resuspended in cold PBS on ice and sonicated with a probe sonicator to achieve lysis; endogenous in cells
Conditions: read-out: percent inhibition.
Description: as §1

For the next experiment, the target named is T15, UniProt Q9HAT8 (Homo sapiens, UniProt Q9HAT8).
T15 construct: 200 μL of lysate containing 5 mg/ml proteome was treated with 2 μL of 100× compound stock; endogenous in cells
T15 sequence (Q9HAT8 whole entry, change not shown): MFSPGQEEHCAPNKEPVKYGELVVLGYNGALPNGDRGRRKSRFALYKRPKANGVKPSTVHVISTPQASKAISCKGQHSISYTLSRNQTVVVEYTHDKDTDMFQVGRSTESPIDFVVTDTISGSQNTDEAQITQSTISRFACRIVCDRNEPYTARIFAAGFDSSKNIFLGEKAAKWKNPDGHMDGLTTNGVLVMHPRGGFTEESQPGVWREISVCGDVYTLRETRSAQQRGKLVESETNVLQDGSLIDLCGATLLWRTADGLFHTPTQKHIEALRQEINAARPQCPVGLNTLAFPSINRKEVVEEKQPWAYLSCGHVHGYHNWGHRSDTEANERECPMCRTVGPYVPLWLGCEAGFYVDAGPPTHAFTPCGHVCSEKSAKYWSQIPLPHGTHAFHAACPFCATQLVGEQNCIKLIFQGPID
Description: as §1

Another experiment concerns the target T16, UniProt O14512 (Homo sapiens, UniProt O14512).
T16 construct: 200 μL of lysate containing 5 mg/ml proteome was treated with 2 μL of 100× compound stock; endogenous in cells
Conditions: read-out: percent_inhibition.
Description: as §1

In another experiment the target is T17, UniProt Q5VTB9 (Homo sapiens, UniProt Q5VTB9).
T17 construct: 200 μL of lysate containing 5 mg/ml proteome was treated with 2 μL of 100× compound stock; endogenous in cells
Conditions: read-out: percent_inhibition.
Description: as §1

The next experiment has as its target T18, UniProt P19474 (Homo sapiens, UniProt P19474).
T18 construct: 200 μL of lysate containing 5 mg/ml proteome was treated with 2 μL of 100× compound stock; endogenous in cells
The settings on record: read-out: KB05_100 uM_percent_inhibition.
Description: as §1

The next experiment deals with T19, UniProt Q149N8 (Homo sapiens, UniProt Q149N8).
T19 construct: 200 μL of lysate containing 5 mg/ml proteome was treated with 2 μL of 100× compound stock; endogenous in cells
Conditions: read-out: percent_inhibition.
Description: as §1

For the next experiment, the target named is T20, UniProt Q6ZMN7 (Homo sapiens, UniProt Q6ZMN7).
T20 construct: 200 μL of lysate containing 5 mg/ml proteome was treated with 2 μL of 100× compound stock; endogenous in cells
The settings on record: read-out: KB05_500 uM_percent_inhibition.
Description: as §1

A further experiment concerns the target T21, UniProt Q99942 (Homo sapiens, UniProt Q99942).
T21 construct: 200 μL of lysate containing 5 mg/ml proteome was treated with 2 μL of 100× compound stock; endogenous in cells
Description: as §1

Another experiment deals with T22, UniProt Q9UPQ7 (Homo sapiens, UniProt Q9UPQ7).
T22 construct: 200 μL of lysate containing 5 mg/ml proteome was treated with 2 μL of 100× compound stock; endogenous in cells
T22 sequence (Q9UPQ7 whole entry, change not shown): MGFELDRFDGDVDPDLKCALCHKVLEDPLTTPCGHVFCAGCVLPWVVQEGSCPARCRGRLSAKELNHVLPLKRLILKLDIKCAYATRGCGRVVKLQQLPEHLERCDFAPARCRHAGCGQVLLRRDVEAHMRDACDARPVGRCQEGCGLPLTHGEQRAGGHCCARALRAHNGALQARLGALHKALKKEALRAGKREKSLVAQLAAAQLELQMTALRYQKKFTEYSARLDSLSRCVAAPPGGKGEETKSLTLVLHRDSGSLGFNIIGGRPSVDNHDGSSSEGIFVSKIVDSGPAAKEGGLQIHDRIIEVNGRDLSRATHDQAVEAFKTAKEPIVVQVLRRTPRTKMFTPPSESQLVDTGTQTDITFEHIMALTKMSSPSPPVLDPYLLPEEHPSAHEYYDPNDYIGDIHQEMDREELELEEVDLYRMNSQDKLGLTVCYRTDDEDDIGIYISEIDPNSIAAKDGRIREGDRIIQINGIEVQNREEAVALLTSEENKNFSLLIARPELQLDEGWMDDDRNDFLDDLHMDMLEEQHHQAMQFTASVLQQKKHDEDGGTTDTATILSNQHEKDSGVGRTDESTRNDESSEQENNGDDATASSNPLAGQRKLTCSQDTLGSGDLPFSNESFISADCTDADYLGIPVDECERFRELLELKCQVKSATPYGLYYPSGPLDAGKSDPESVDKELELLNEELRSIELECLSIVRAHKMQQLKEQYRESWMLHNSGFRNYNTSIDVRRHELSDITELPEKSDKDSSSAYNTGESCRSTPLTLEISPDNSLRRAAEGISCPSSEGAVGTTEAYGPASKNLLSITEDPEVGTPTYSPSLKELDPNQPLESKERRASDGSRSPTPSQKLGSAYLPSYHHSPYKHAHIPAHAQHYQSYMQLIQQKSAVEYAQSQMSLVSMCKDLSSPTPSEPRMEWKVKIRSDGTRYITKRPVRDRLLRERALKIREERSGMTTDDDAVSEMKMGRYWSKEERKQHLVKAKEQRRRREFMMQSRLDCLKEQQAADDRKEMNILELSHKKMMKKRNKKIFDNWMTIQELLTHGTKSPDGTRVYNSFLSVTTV
Description: as §1

A further experiment deals with T23, UniProt Q9C037 (Homo sapiens, UniProt Q9C037).
T23 construct: 200 μL of lysate containing 5 mg/ml proteome was treated with 2 μL of 100× compound stock; endogenous in cells
The settings on record: read-out: KB05_100 uM_percent_inhibition.
Description: as §1

The target in another experiment is T24, UniProt Q13309 (Homo sapiens, UniProt Q13309).
T24 construct: 200 μL of lysate containing 5 mg/ml proteome was treated with 2 μL of 100× compound stock; endogenous in cells
The settings on record: read-out: percent_inhibition.
Description: as §1

The next experiment concerns the target T25, UniProt Q9NS56 (Homo sapiens, UniProt Q9NS56).
T25 construct: 200 μL of lysate containing 5 mg/ml proteome was treated with 2 μL of 100× compound stock; endogenous in cells
Description: as §1

Another experiment has as its target T26, UniProt Q9C019 (Homo sapiens, UniProt Q9C019).
T26 construct: 200 μL of lysate containing 5 mg/ml proteome was treated with 2 μL of 100× compound stock; endogenous in cells
The settings on record: 100 uM.
Description: as §1

In the next experiment the target is T27, UniProt Q86XN8 (Homo sapiens, UniProt Q86XN8).
T27 construct: Cells were resuspended in cold PBS on ice and sonicated with a probe sonicator to achieve lysis; endogenous in cells
Conditions: 100 uM.
Description: as §1

Another experiment has as its target T28, UniProt Q8NG27 (Homo sapiens, UniProt Q8NG27).
T28 construct: 200 μL of lysate containing 5 mg/ml proteome was treated with 2 μL of 100× compound stock; endogenous in cells
Conditions: 100 uM.
Description: as §1

For a further experiment, the target named is T29, UniProt P14373 (Homo sapiens, UniProt P14373).
T29 construct: 200 μL of lysate containing 5 mg/ml proteome was treated with 2 μL of 100× compound stock; endogenous in cells
Conditions: 100 uM.
Description: as §1

Another experiment deals with T30, UniProt Q86TM6 (Homo sapiens, UniProt Q86TM6).
T30 construct: 200 μL of lysate containing 5 mg/ml proteome was treated with 2 μL of 100× compound stock; endogenous in cells
The settings on record: 100 uM.
Description: as §1

Another experiment concerns the target T31, UniProt Q15025 (Homo sapiens, UniProt Q15025).
T31 construct: 200 μL of lysate containing 5 mg/ml proteome was treated with 2 μL of 100× compound stock; endogenous in cells
The settings on record: 100 uM.
Description: as §1

A further experiment has as its target T32, UniProt O75382 (Homo sapiens, UniProt O75382).
T32 construct: 200 μL of lysate containing 5 mg/ml proteome was treated with 2 μL of 100× compound stock; endogenous in cells
The settings on record: 100 uM.
Description: as §1

The mark [1] stands for this setting: 100 uM, read-out: KB02_100 uM_percent_inhibition.

Structures are written as SMILES.

T25 sequence (Q9NS56 whole entry, change not shown): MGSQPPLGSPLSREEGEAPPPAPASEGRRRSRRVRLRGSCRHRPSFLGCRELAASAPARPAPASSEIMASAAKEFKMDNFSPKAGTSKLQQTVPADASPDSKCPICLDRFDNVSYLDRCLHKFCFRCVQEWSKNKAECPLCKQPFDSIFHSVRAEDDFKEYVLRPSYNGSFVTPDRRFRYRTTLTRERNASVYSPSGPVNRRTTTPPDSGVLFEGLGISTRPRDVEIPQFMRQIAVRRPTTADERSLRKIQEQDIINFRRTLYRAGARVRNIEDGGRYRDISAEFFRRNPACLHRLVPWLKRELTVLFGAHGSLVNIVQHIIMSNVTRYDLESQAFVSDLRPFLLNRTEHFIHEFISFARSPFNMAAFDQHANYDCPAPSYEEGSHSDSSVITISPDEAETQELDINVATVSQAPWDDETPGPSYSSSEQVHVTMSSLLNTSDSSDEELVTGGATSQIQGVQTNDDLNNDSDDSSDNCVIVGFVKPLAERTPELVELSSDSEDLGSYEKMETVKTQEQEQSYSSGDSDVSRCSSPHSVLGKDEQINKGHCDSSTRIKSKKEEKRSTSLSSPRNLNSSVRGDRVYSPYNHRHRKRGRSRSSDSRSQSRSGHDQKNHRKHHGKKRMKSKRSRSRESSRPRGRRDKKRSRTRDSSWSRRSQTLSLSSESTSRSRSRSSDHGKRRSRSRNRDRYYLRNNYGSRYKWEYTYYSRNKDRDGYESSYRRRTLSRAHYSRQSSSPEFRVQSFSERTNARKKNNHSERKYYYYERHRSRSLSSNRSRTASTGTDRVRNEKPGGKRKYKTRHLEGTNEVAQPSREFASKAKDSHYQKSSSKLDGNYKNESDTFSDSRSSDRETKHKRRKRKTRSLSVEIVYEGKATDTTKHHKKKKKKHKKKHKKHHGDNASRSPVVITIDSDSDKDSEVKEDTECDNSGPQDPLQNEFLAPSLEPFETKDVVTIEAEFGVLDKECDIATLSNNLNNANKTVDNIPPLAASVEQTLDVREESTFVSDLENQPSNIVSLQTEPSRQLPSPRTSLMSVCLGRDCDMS
T7 sequence (E7ERA6 whole entry, change not shown): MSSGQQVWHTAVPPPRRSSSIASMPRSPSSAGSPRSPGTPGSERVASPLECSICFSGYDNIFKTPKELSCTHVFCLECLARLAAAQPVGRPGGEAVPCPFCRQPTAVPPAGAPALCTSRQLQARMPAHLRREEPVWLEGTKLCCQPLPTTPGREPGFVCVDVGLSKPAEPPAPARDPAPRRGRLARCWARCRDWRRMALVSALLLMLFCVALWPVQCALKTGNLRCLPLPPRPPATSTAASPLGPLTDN
T6 sequence (Q96PU5 whole entry, change not shown): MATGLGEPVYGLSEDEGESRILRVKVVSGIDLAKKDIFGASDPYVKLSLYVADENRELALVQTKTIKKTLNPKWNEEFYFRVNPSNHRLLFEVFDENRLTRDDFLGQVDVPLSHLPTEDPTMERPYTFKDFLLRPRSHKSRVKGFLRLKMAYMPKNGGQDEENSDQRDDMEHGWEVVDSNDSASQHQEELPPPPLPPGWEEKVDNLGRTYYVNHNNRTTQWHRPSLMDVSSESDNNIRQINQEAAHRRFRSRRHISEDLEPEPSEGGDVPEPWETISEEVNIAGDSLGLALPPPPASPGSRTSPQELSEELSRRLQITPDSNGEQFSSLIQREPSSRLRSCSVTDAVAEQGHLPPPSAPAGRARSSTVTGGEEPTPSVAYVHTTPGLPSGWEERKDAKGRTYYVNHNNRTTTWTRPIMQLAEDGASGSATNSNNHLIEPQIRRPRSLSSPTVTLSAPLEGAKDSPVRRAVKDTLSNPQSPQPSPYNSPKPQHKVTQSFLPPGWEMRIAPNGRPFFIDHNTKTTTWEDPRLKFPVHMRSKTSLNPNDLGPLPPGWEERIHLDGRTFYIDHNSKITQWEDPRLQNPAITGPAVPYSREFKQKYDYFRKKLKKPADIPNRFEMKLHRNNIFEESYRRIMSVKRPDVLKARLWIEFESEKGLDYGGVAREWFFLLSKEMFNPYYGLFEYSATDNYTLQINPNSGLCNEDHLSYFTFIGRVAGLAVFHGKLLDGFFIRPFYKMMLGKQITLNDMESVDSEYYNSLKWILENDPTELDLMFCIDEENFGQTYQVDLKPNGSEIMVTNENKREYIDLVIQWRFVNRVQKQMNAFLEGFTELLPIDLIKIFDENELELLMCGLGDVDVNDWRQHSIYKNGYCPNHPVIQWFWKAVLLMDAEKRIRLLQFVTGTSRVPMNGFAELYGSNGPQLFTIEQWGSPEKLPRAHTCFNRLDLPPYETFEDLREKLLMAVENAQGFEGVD
T21 sequence (Q99942 whole entry, change not shown): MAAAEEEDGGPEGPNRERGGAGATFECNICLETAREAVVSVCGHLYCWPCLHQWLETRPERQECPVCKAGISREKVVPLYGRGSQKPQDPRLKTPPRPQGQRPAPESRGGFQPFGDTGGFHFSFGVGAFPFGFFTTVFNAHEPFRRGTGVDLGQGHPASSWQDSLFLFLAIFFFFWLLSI
T3 sequence (P0DH78 whole entry, change not shown): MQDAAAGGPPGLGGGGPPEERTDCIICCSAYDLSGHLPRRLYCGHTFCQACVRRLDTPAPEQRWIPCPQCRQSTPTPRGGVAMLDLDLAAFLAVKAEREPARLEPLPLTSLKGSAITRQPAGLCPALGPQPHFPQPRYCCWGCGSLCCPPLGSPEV

On to `COc1ccc2c(c1)CCCN2C(=O)CCl` [KB02], for which the inhibition at 500 µM at UniProt Q9BYV6 is 1%; at UniProt Q15366, 45%; on UniProt P0DH78 (500 uM), 67%; at UniProt E7ERA6 (read-out: percent_inhibition), 35%; on UniProt Q9C040 (500 uM, read-out: KB02_500 uM_percent_inhibition) it was 32%. In addition, the inhibition at 100 µM on UniProt P0DH78 (100 uM) was found to be 17%; on UniProt Q9NRJ4, 28%; at UniProt Q96PU5 (read-out: percent inhibition), 30%; on UniProt Q9C040 (setting [1]), 20%; on UniProt Q13114, 33%; on UniProt Q9NQ86 (setting [1]) it was 27%. The inhibition at 100 µM on UniProt P51948 came out at 3%; at UniProt Q5U5Q3 it was 5%. The percent inhibition at UniProt O15344 was 24%; at UniProt Q96PU5 (100 uM), 33%; on UniProt Q9H000 it was 24%. For the same compound, the percent_inhibition on UniProt E7ERA6 (500 uM) amounted to 38%; at UniProt Q96EP0 it was 24%. The “KB02_500 uM_percent_inhibition” value on UniProt Q9NQ86 (500 uM) was 88%.

As for `C=CC(=O)N(c1ccccc1)c1ccc(Br)cc1` [KB05], the inhibition at 100 µM at UniProt Q9HAT8 (100 uM, read-out: KB05_100 uM_percent_inhibition) came out at 15%; on UniProt Q5VTB9, 2%; at UniProt P19474 it was 39%; on UniProt Q149N8, 41%; at UniProt Q99942 (read-out: percent_inhibition), 14%; at UniProt Q9UPQ7 (read-out: KB05_100 uM_percent_inhibition), 20%. Moreover, the values for the inhibition at 100 µM on UniProt Q9C037, at UniProt Q13309 and at UniProt Q9NS56 (read-out: percent_inhibition) were 11%, 10% and 13%, respectively. Moreover, the inhibition at 500 µM at UniProt Q9HAT8 (500 uM, read-out: KB05_500 uM_percent_inhibition) was 63%; on UniProt O14512, 89%; on UniProt Q6ZMN7, 1%. The percent_inhibition was found to be 15% on UniProt Q99942 (100 uM) and 11% on UniProt Q9NS56 (100 uM). Also, the “KB05_100 uM_percent_inhibition” value at UniProt Q9UPQ7 (100 uM) worked out at 24%.

`O=C(CCl)Nc1cc(C(F)(F)F)cc(C(F)(F)F)c1` [KBO3]: the “KB03_100 uM_percent_inhibition” value was found to be 18% on UniProt Q9C019, 16% on UniProt Q8NG27, 13% on UniProt P14373 and 45% at UniProt O75382. This compound came in with a percent inhibition at UniProt Q86XN8 of 48%. The percent_inhibition at UniProt Q86TM6 is 19%; at UniProt Q15025, 3%.

(Values after patent publication US20200239530A1, “COMPOUNDS AND METHODS OF MODULATING PROTEIN DEGRADATION” (Vividion Therapeutics, Inc., priority 2017, published 2020).)
